According to EP0378881B1, “Synthetic peptides and their use as universal carriers for the preparation of immunogenic conjugates suitable for the development of synthetic vaccines” ([…] S.p.A., priority 1989, dated 1993):
“Also recorded” adds a separate entry of the source. Like-named read-outs stand apart in the source and are kept apart here.

How the values were obtained:
[1] = tested on: Mononucleated cells of peripheral blood (PBMC); assay type: cell-based, human
[2] = tested on: T-cellular clones which are specific for TT=2; assay type: cell-based, human
[3] = tested on: T-cellular clones which are specific for TT=2; assay type: cell-based, human; remark: listed apart in the source
[4] = tested on: anti-CSP antibody response; settings: cited from earlier work

Gln-Tyr-Ile-Lys-Ala-Asn-Ser-Lys-Phe-Ile-Gly-Ile-Thr-Glu (QYIKANSKFIGITE; printed: Gln-Tyr-Ile-Lys-Ala-Asn-Ser-Lys-Phe-Ile-Gly-Ile-Thr-Glu) [TT=2, synthetic peptide corresponding to TT segment 830-843]
TT=2-specific cells as share of all the T cells which were specific for the Tetanus Toxoid (TT) [1]: ≤ 5%
DR alleles in association with which the clone recognizes TT=2 [2]: DR1, 2, 4w4 and 7; also recorded: DR5JVM and 6
DR alleles that can be used as restriction molecules [2]: DR1-9, 4 x 4, 5JVM and DRw52b
concentrations of the peptide at which all the clones react (dose-response plot) [2]: 0.1 to 2 µM
isotype of the II-class molecules recognized by the clones [2]: restricted DRs
proliferation of the isolated clones in response to the antigen [2]: proliferate responsively
minimum antigenic sequence (epitope) recognized by the T-cells [3]: single 831-842 epitope

H-(Asn-Ala-Asn-Pro)n
anti-CSP antibody response ([4]; CBA/ca mice): not able to induce
anti-CSP antibody response ([4]; DBA/2 mice): not able to induce

NANP₄₀: polymer (Asn-Ala-Asn-Pro)₄₀ obtained by polymerizing the activated monomer
responder status of the mouse strain ([4]; C57/8L/6 mice): natural responders
responder status of the mouse strain ([4]; CB4/ca mice): non-responders
responder status of the mouse strain ([4]; DBA/2 mice): non-responders
